# pIC50: −log10 of the molar value. Where a name gives a salt, the structure may show the parent alone.
# Assays:
# [1] = Pharmacokinetic study of colon contents and plasma after oral dose of conjugate; assay type: in vivo, male C57B3L/6 mice; conditions: for Cmax: male
# Protocol: To confirm that the active agent component of the conjugate is released in the gastrointestinal tract, a pharmacokinetic study was conducted in male C57B3L/6 mice examining conjugate and active agent of concentrations in both the colon contents and plasma after oral dose of conjugate. Conjugate and active agent of were quantified by LCMS at 0 (pre-dose), 0.25, 0.5, 1, 2, 4, 6, 8, 12, and 24 hours post-dose of compound.
# [2] = in vivo; parameters: species or system Sprague-Dawley rats; conditions: Sprague-Dawley, rat
# Protocol: Sprague-Dawley rats (three rats per compound) were treated with a single intravenous (IV) 1 mg/kg dose or orally (PO) a single 10 mg/kg dose. Plasma concentrations of the conjugates were determined by LCMS at 5 minutes, 15 minutes, 30 minutes, 1 hour, 2 hours, 4 hours, 8 and 24 hours post compound administration. […] In addition, the plasma exposure and bioavailability of the active agent of was lower when dosed as a conjugate instead of the active agent alone.
# [3] = assay type: in vitro ADME; conditions: simulated gi fluid, 1 µM, pH 6.7
# Protocol: This assay was used to assess the stability of a conjugate in a small intestine.
# Phosphate buffer was prepared by dissolving 0.42 g of sodium hydroxide pellets and 3.95 g of monobasic sodium phosphate monohydrate and 6.19 g of sodium chloride in ultrapure water (MilliQ®, Millipore Sigma, Darmstadt, Germany). The pH was adjusted to 6.7 using aq. HCl and aq. NaOH, as necessary, and the solution was diluted with ultrapure water to produce 1 L of the pH 6.7 buffer.
# 112 mg FaSSIF powder (Biorelevant™, London, UK) was dissolved in 50 mL of the pH 6.7 buffer. 2 to 3 mL of the resulting solution were then added to 500 mg pancreatin (Millipore Sigma, Darmstadt, Germany). The resulting mixture was agitated by finger tapping the vessel containing the mixture until milky suspension formed. At this time, the remainder of the 50 mL FaSSiF/pH 6.7 buffer solution was added. The resulting suspension was flipped upside down 10 times to produce SIF, which was used fresh.
# (§1) Test compounds were dissolved in DMSO stock to 1 mM. An aliquot of the DMSO stock solution was removed and diluted in the SIF media in 15 mL falcon tubes to produce a mixture with a tested compound concentration of 1 μM. A 1 mL aliquot was immediately removed and diluted once with 1 volume of acetonitrile for T0 timepoint. The mixture was sealed and agitated at 37° C. in an incubator. Aliquots (1 mL) were removed at regular intervals and immediately quenched by the addition of 1 volume of acetonitrile. The resulting samples were analyzed by LCMS to determine degradation rates.
# [4] = system: CutC/D enzyme; experiment: Acute mouse model (plasma TMAO on choline diet); assay type: in vivo, male C57BL/6 mice
# Procedure, shortened: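 Male C57BL/6 mice fed a diet with 1.0% choline (g/g) received compound in water by oral gavage once daily on days 1–3. Plasma taken 20 h after the last dose was protein-precipitated and TMAO quantified by LC-MS/MS against a 0.05-100 μM d9-TMAO calibration curve in control plasma.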
# [5] = molecular target: CutC from Proteus mirabilis (Proteus mirabilis, UniProt B4EYG1); experiment: Cell-based assay for TMA production from a native producer (P. mirabilis); conditions: d9-TMA from 1 mM d9-choline, 5 h, 37° C.; value 10 given when no fit or % TMA remaining at 10 μM higher than 15%; read-out: Average IC50 Whole cell P. mirabilis
# Procedure, shortened: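 Overnight anaerobic cultures of P. mirabilis or C. sporogenes, grown in BHI with 1 mM choline, were diluted and given 1 mM (trimethyl-d9)-choline plus compound at 10 μM final. After 5 h at 37° C., d9-TMA was quantified by LCMS.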
# [6] = assay type: in vitro ADME; conditions: 1 µM
# Protocol: This assay was used to assess the stability of a conjugate in a large intestine.
# All experiments were performed in an anaerobic chamber containing 90% nitrogen, 5% hydrogen and 5% carbon dioxide. Colonic material was resuspended as a slurry (15% w/v final concentration) in pre-reduced, anaerobically sterilized dilution blanks (Anaerobe Systems AS-908). The colonic material was then inoculated into 96 well plates containing YCFAC media (Anaerobe Systems AS-680, 6.7 μL slurry into 1 mL total media). A compound was added to each individual well to reach a final analyte concentration of 1 μM, and the material was mixed by pipetting. Each sample was removed after set timepoints (0, 120, 240, 480, 1440, 2880 minutes after initiation of the assay), quenched with acetonitrile containing internal standard, and analyzed by LCMS.
# [7] = assay type: in vitro ADME; conditions: simulated gi fluid, 1 µM, pH 1.6
# Protocol: This assay was used to assess the stability of a conjugate in a stomach.
# Medium was prepared by dissolving 2 g of sodium chloride in 0.6 L in ultrapure water (MilliQ®, Millipore Sigma, Darmstadt, Germany). The pH was adjusted to 1.6 with 1N hydrochloric acid, and the volume was then adjusted to 1 L with purified water.
# 60 mg FaSSIF powder (Biorelevant™, London, UK) were dissolved in 500 mL buffer (above). Pepsin was added (0.1 mg/mL) (Millipore Sigma, Darmstadt, Germany), and the solution was stirred. The resulting SGF media were used fresh for each experiment.
# as §1, with “SGF Media” for “SIF media”, “generate” for “produce”, “total” for “mixture with a tested”, “mixed” for “agitated”, “rates in SGF.” for “rates.”
# CutC from Proteus mirabilis, sequence (B4EYG1 entry or part of it): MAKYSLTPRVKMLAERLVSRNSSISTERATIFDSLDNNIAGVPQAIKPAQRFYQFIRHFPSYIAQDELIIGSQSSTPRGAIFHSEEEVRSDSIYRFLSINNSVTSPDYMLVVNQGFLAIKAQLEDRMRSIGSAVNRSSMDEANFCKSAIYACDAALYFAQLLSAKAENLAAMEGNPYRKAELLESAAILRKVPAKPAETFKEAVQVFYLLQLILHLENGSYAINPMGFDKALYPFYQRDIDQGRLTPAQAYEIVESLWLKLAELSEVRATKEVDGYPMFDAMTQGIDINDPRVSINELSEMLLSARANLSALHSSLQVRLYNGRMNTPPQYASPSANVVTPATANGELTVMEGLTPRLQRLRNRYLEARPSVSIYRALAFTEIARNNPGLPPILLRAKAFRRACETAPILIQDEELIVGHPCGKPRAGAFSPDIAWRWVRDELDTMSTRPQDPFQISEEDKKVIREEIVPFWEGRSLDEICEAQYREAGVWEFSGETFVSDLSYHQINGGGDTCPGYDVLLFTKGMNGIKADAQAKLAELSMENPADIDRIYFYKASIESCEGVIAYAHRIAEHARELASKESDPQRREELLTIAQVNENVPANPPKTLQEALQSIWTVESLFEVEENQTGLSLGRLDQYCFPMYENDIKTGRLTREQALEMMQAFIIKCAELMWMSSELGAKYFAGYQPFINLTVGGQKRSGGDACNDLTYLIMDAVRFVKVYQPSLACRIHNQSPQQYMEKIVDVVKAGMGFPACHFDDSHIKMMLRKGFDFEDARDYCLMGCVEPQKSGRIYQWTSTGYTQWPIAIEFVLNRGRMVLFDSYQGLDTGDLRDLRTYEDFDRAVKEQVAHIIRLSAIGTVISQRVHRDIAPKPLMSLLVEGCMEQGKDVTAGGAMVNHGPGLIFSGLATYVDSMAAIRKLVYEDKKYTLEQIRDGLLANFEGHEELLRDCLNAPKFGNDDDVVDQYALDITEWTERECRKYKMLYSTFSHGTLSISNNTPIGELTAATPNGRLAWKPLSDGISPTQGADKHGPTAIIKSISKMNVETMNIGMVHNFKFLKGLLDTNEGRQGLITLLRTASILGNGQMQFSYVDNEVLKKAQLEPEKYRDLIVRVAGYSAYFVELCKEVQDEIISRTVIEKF
# CutC from Proteus mirabilis, sequence (B4EYG0 entry or part of it, further chain): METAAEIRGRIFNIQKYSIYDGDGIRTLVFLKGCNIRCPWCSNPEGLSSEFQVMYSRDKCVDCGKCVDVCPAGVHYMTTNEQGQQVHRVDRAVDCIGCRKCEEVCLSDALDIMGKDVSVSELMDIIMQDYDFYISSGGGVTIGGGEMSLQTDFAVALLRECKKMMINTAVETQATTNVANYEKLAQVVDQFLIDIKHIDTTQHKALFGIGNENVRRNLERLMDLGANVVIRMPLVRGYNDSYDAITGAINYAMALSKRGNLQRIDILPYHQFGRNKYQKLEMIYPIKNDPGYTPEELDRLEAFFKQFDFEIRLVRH
SMILES,"Cmax ([2]; iv, 1 mg/kg) [nM]","Cmax ([2]; po, 10 mg/kg) [nM]","bioavailability ([2]; po, 10 mg/kg) [%]",Assay 2- FaSSIF Stability: % Remaining at 4 hr [3] [%],pIC50 [5],Assay 3- Colonic Material Stability Assay % Remaining at 24 hr [6] [%],Assay 1- FaSSGF Stability: % Remaining at 1 hr [7] [%],further results
"CC(=O)OCC1OC(OCC[N+](C)(C)CCl)C(OC(C)=O)C(OC(C)=O)C1OC(C)=O.[I-] (stereo in doubt) [Compound 78, N-(chloromethyl)-N,N-dimethyl-2-(((2S,3S,4R,5S,6S)-3,4,5-triacetoxy-6-(acetoxymethyl)tetrahydro-2H-pyran-2-yl)oxy)ethan-1-aminium Iodide]",8310,130,0.99,,,,,"Cmax ([1]; C57B3L/6, mouse, in vivo, po): 70 nM; Plasma Cmax ([1]; mouse, in vivo, po): Not; % F ([2]; po, 10 mg/kg): 1.91%"
"C#CC[N+](C)(C)CCO[C@@H]1OC[C@@H](OC(C)=O)[C@H](OC(C)=O)[C@H]1OC(C)=O.[I-] [Compound 8, N,N-dimethyl-N-(2-(((3R,4S,5R)-3,4,5-triacetoxytetrahydro-2H-pyran-2-yl)oxy)ethyl)prop-2-yn-1-aminium iodideiodideiodideiodideiodide]",,,,113.28,≤ 5.00,17,105.93,"% change from vehicle control + choline diet ([4]; Table 4d, 100 mg/kg oral gavage days 1-3): −33%; Mean plasma TMAO ([4]; Table 4d, 100 mg/kg oral gavage days 1-3, plasma 20 h after last gavage): 12.5 µM"
"C#CC[N+](C)(C)CC(=O)O[C@H]1CO[C@H]2[C@@H]1OC[C@H]2O.O=C([O-])C(F)(F)F [Compound 70, N-(2-(((3S,3aR,6R,6aR)-6-hydroxyhexahydrofuro[3,2-b]furan-3-yl)oxy)-2-oxoethyl)-N,N-dimethylprop-2-yn-1-aminium trifluoroacetate]",,,,28.06,≤ 5.00,47,98.36,
"Br.C#CC[N+](C)(C)CC(=O)O[C@@H]1CO[C@H]2[C@@H]1OC[C@@H]2O [Compound 73, N-(2-(((3R,3aR,6S,6aR)-6-hydroxyhexahydrofuro[3,2-b]furan-3-yl)oxy)-2-oxoethyl)-N,N-dimethylprop-2-yn-1-aminium bromide]",,,,62.73,≤ 5.00,44,107.49,
"C#CC[N+](C)(C)CCO[C@H]1CO[C@H]2[C@@H]1OC[C@H]2O [Compound 74, N-(2-(((3S,3aR,6R,6aR)-6-hydroxyhexahydrofuro[3,2-b]furan-3-yl)oxy)ethyl)-N,N-dimethylprop-2-yn-1-aminium trifluoroacetate]",,,,121.56,≤ 5.00,99,107.3,
"C[N+](C)(CF)CCO[C@@H]1O[C@H](CO)[C@@H](O)[C@H](O)[C@H]1O.[Cl-] [Compound 98, (fluoromethyl)dimethyl(2-{[(2R,3R,4S,5S,6R)-3,4,5-trihydroxy-6-(hydroxymethyl)oxan-2-yl]oxy}ethyl)azanium Chloride]",23600,306,0.72,,,,,"Cmax ([1]; C57B3L/6, mouse colon contents after oral dose of conjugate, compound measured = conjugate dosed, read-out: Colon Cmax): 21800 nM; Cmax ([1]; C57B3L/6, mouse plasma after oral dose of conjugate, compound measured = conjugate dosed, read-out: Plasma Cmax): 1300 nM; % change from vehicle control + choline diet ([4]; Table 4f, 3.70 mg/kg oral gavage days 1-3): −8%; Mean plasma TMAO ([4]; Table 4f, 3.70 mg/kg oral gavage days 1-3, plasma 20 h after last gavage): 29.7 µM; % change from vehicle control + choline diet ([4]; Table 4f, 11.0 mg/kg oral gavage days 1-3): 6%; Mean plasma TMAO ([4]; Table 4f, 11.0 mg/kg oral gavage days 1-3, plasma 20 h after last gavage): 34.3 µM; % change from vehicle control + choline diet ([4]; Table 4f, 36.6 mg/kg oral gavage days 1-3): −69%; Mean plasma TMAO ([4]; Table 4f, 36.6 mg/kg oral gavage days 1-3, plasma 20 h after last gavage): 10.1 µM"

# — US20220041641A1, “QUATERNARY AMMONIUM SALTS AS INHIBITORS OF TRIMETHYLAMINE PRODUCTION” (Senda Biosciences, Inc., priority 2018, published 2022)
